The subject of one assay is PKC-ε mRNA. The experiment in a line: PKC-ε mRNA by RT-PCR in primary neurons. The assay is classed as cell-based, rat. The conditions noted are these: primary neurons treated with ASPD and/or DCPLA-ME, normalized to β-actin. The procedure: RNA was isolated from the cells using Trizol reagent (Invitrogen, USA) following the manufacturer's protocol. Briefly, 5 μg of the total RNA was reverse transcribed using oligo (dT) and Superscript III (Invitrogen, USA) at 50° C. for 1 hr. Two μl of the cDNA product was amplified using primers for PKC-ε (Forward Primer—[…], Reverse primer—[…] (Origene, Rockville, Md.)) and β-actin (Promega, USA) for 30 cycles following standard PCR protocols using a 55° C. annealing temperature. The PCR amplicons were analyzed in an E-Gel (Invitrogen, USA). The gel was imaged using a Fuji Image gel scanner (FLA-9000, Fuji Film) and densitometric quantification was performed using IMAL software (Blanchette Rockefeller Neurosciences Institute, Morgantown, W. Va.). Data were represented as normalized ratio of PKC-ε OD (Optical Density) against β-actin OD for three independent experiments.
Primary neurons were treated with ASPD and/or DCPLA-ME. PKC-ε mRNA was quantified by RT-PCR as described above. RNA prepared from control and treated cultured primary rat hippocampal neurons were isolated and reverse transcribed. Individual cDNA was amplified for PKC-ε and β-actin. PKC-ε expression was normalized to β-actin.

Another assay has as its target PKC-α (Homo sapiens, UniProt P17252). The experiment in a line: PKC activation assay with purified PKC-α isozyme. The assay is classed as biochemical. How it is done: For measurement of PKC activation by DCPLA-ME, activation of recombinant PKC-α, PKC-ε, and PKC-δ was evaluated. DCPLA-ME induced activation was measured in the absence of diacylglycerol (DAG) and phosphatidylserine (PS) as described earlier. See Nelson, T. J. et al., J. Biol. Chem., 2009, 284: 34514-34521, and Kanno, T. et al., J. Cell Physiol., 2009, 221: 183-188. Individual enzymes were incubated for 15 min at 37° C. in the presence of 10 μM histones, 4.89 mM CaCl2, 10 mM MgCl2, 20 mM HEPES (pH 7.4), 0.8 mM EDTA, 4 mM EGTA, 4% glycerol, 8 μg/ml aprotinin, 8 μg/ml leupeptin, 2 mM benzamidine, and 0.5 μCi of [γ-^32P]ATP. Purified PKC-α, PKC-ε and PKC-δ were preincubated with DCPLA-ME for 5 min at room temperature. [^32P]-Phosphoprotein formation was measured by adsorption onto phosphocellulose.
To measure PKC, 10 μl of cell homogenate or purified PKC isozyme was incubated for 15 min at 37° C. in the presence of 10 μM histones, 4.89 mM CaCl2, 1.2 μg/μl phosphatidyl-L-serine, 0.18 μg/μl 1,2-dioctanoyl-sn-glycerol, 10 mM MgCl2, 20 mM HEPES (pH 7.4), 0.8 mM EDTA, 4 mM EGTA, 4% glycerol, 8 μg/ml aprotinin, 8 μg/ml leupeptin, and 2 mM benzamidine. [γ32P]ATP (0.5 μCi) was added and 32P-phosphoprotein formation was measured by adsorption onto phosphocellulose as described previously. […]
PKC activity of each compound was measured in the absence of diacylglycerol and phosphatidyl-L-serine and PKC-δ and PKC-ε were measured in the absence of added EGTA and CaCl2, as described by Kanno et al., J. Lipid Res., 2006, 47: 1146-1156. […] To determine their PKC isozyme specificity, the compounds were pre-incubated with purified isoforms of PKC for five minutes and the PKC activity was measured radiometrically.
The activation and PKC isozyme specificity of DCPLA-ethyl ester was measured following the procedures in Example 1(B) and (C), except that 9 ng of the purified isozyme was used and it was pre-incubated for 5 minutes at room temperature (FIG. 3). PKC-ε activation by DCPLA-tert-butyl ester and DCPLA-retinyl ester was measured in the same manner as DCPLA-ethyl ester (FIG. 3).

Assay [1] has as its system primary human cortical neurons. The experiment in a line: 40 day culture of human primary cortical neurons: survival, synapses, branching. The assay is classed as cell-based. The conditions noted are these: 100 nM. How it is done:
To examine the effects of PKC-ε activation, cultured human cortical neurons in serum-free artificial medium were exposed to 100 nM DCPLA-ME added every three days, along with 50% medium replacement, for 40 days. More specifically, human primary cortical neurons were grown in Neuronal Medium (ScienCell Cat No#1521) containing neuronal growth supplement (NGS) (Sciencell Cat No#1562).
Cells were plated on poly-l-lysine (0.001%) coated plates at a density of >10000 cells/cm2. Half of the media was replaced by new media every 3 days. DCPLA-ME was dissolved in 100% ethanol and added at 100 nM final concentration. Fresh DCPLA-ME (100 nM) was added every 3 days during media change. The experiments were continued for 40 days.
Human primary neurons (ScienCell Research Laboratories, USA) were thawed and plated on poly-L-lysine coated plates at a density of 10,000 cells per cm^2 and were maintained in neuronal medium (DMEM+high glucose+neuronal growth supplement, ScienCell Research Laboratories, USA) following the recommended method. Primary human neurons were then treated with either DCPLA-ME (100 nM) or bryostatin 1 (0.27 nM) for 40 days. Fresh drug was added every third day with 50% media change.

Turning to “ASPD: Amylospheroids from Aβ1-42, 100 kDa filter retentate, containing 39 monomers on average”, in the assay on PKC-ε mRNA, the PKC-ε transcript levels result was “did not change PKC-ε mRNA significantly”.

For the compound `CCCCCC1CC1CC1CC1CCCCCCCC(=O)OC` (centres unmarked) [DCPLA-ME, DCPLA methyl ester], in the assay with PKC-ε mRNA, the PKC-ε transcript levels result is “increased PKC-ε transcript levels”. The “effect on PKC-α” value at PKC-α was “did not have a major effect”. In assay [1] (30 day old neurons), the number of synapses entry is recorded as “significantly increased”. Besides, in assay [1] (40 days, compared to control or bryostatin 1-treated cells), the “Expression levels of PKCε, PSD-95 and synaptophysin” value is recorded as “significantly higher”.

Source of the values: patent US9163032B2, “Esters of DCPLA and methods of treatment using the same” (Blanchette Rockefeller Neurosciences Institute, priority 2011, dated 2015).
